Two compounds from ChEMBL document CHEMBL1141742, “A Novel Insect Antifeedant Nonprotein Amino Acid from Calotropis gigantea” (1998) can be followed below.

The structures appear in SMILES notation. Activity calls are given as the source filed them. No cut-off for these calls is given here.

For assay [1], the system named is Schistocerca gregaria. The assay is described as follows: Antifeedant activity against 5th instar nymphs of Schistocerca gregaria assessed as feeding reduction at 1 ng/cm'2 by filter paper based feeding assay. The class given is functional, organism-based.
The test system of assay [2] is Schistocerca gregaria. The assay is described as follows: Antifeedant activity against 5th instar nymphs of Schistocerca gregaria assessed as feeding reduction at 1.6 ug/cm'2 by maize leave choice feeding assay. The assay is classed as functional. Details: scale not given: the % may be the effect or the level left.
Assay [3] has as its system Schistocerca gregaria. The assay is described as follows: Antifeedant activity against 5th instar nymphs of Schistocerca gregaria assessed as feeding reduction at 3.2 ug/cm'2 by maize leave choice feeding assay. The class given is functional. Details: scale not given: the % may be the effect or the level left.
The subject of assay [4] is Schistocerca gregaria. The assay is described as follows: Antifeedant activity against 5th instar nymphs of Schistocerca gregaria assessed as feeding reduction at 5 ug/cm'2 by maize leave choice feeding assay. The class given is functional. Details: scale not given: the % may be the effect or the level left.
Assay [5] has as its system Schistocerca gregaria. The assay is described as follows: Antifeedant activity against 5th instar nymphs of Schistocerca gregaria assessed as feeding reduction at 6.6 ug/cm'2 by maize leave choice feeding assay. The assay is classed as functional. Details: scale not given: the % may be the effect or the level left.

With `C/C=C(\C)C(=O)O[C@H]1C[C@@H](OC(C)=O)[C@@]2(C(=O)OC)CO[C@H]3[C@@H](O)[C@@](C)([C@]45O[C@@]4(C)[C@@H]4C[C@H]5O[C@@H]5OC=C[C@@]54O)[C@H]4[C@]1(CO[C@]4(O)C(=O)OC)[C@@H]32`, in the assay with Schistocerca gregaria [1], the outcome was Active.
`CCOC(=O)Nc1ccc([C@H](NC(C)=O)C(=O)O)cc1` [GIGANTICINE]: the Activity is given as 55% with Schistocerca gregaria [2], 68% in the assay on Schistocerca gregaria [3], 80% in the assay with Schistocerca gregaria [4] and 90% in the assay with Schistocerca gregaria [5].
